# Experimental data as given in publication PMC12040169 (PLOS Biology, 2025).
# Assay: in vitro
# Conditions: human, hela cells, % viability
row,Structure (SMILES),"viability at 28.5 h, 10 µM [%]"
1,O=C1OC(c2ccco2)=N/C1=C/c1ccccc1OC(=O)c1ccco1 [CBK263980],103
2,Cc1ccc(S(=O)(=O)N(CC(=O)NCc2ccco2)c2cc(C)cc(C)c2)cc1 [CBK263982],86.2
3,Cc1ccc2cccc(OS(=O)(=O)c3ccc(Cl)c(C)c3Cl)c2n1 [CBK263984],53.7
4,Cc1ccc(CSCCNC(=O)/C=C/c2ccccc2)cc1 [CBK263985],95.3
5,O=C(NC(=S)Nc1ccc2[nH]c(=O)[nH]c2c1)c1ccc(F)cc1 [CBK263986],89.3
6,O=C(NC(c1cccc([N+](=O)[O-])c1)c1cc(Cl)c2cccnc2c1O)c1cccnc1 (stereo not drawn) [CBK263987],92.5
7,CS(=O)(=O)N(Cc1ccc(Cl)cc1)c1ccc(C(=O)Nc2ccccc2C(F)(F)F)cc1 [CBK263988],101
8,CS(=O)(=O)N(CC(=O)Nc1ccc2c(c1)OCO2)c1ccc(Oc2ccccc2)cc1 [CBK263989],91.5
9,COc1ccc(C(=O)NC(c2ccc(OC)c(OC)c2)c2cc(Cl)c3cccnc3c2O)cc1 (stereo not drawn) [CBK263992],96.3
10,O=C(COc1ccccc1)NC(/C=C/c1ccccc1)c1cc(Cl)c2cccnc2c1O (stereo not drawn) [CBK263994],104
11,O=C(Nc1ccc(S(=O)(=O)N2CCCCC2)cc1)c1ccc(CN2CCOCC2)cc1 [CBK264002],111
12,CCOC(=O)c1ccc(NC(=S)NC(=O)c2ccc(C)c(C)c2)cc1 [CBK264004],89.2
13,S=C(NCCC(c1ccccc1)c1ccccc1)NC1CCCCC1 [CBK264007],96.3
14,COc1ccc(C)cc1N(CC(=O)Nc1ccccc1C(=O)O)S(C)(=O)=O [CBK264009],94.4
15,CC(=O)c1cc(C(=O)Nc2ccc(NC(=O)C(=O)O)cc2)oc1C [CBK264011],95.4
16,O=C(/C=C/c1ccc2c(c1)OCO2)NCCSc1ccccn1 [CBK264012],97.7
17,O=C(CC1Sc2ccccc2NC1=O)Nc1ccccc1[N+](=O)[O-] (stereo not drawn) [CBK264014],94.8
18,Cc1oc2c(c1C(=O)NCC(=O)NCC(=O)O)CCCC2 [CBK264015],97.6
19,Cc1ccc(Cl)cc1N(CC(=O)Nc1ccccc1C(=O)O)S(C)(=O)=O [CBK264020],89.5
20,COc1ccc(Br)cc1S(=O)(=O)NCc1cccnc1 [CBK264023],90.7
21,CCOc1ccc(OCC)c(S(=O)(=O)n2nc(C)cc2C)c1 [CBK264024],94.6
22,COc1ccc(CSCC(N)C(=O)O)cc1Br (stereo not drawn) [CBK264026],94
23,CSCCC(NC(=O)c1c(C)oc2c1CCCC2)C(=O)O (stereo not drawn) [CBK264029],82
24,Cc1ccc(N(CC(=O)Nc2cc(Cl)ccc2C)S(C)(=O)=O)cc1 [CBK264030],92.9
25,COc1ccc(N(CC(=O)Nc2cccnc2)S(=O)(=O)c2ccc(C)cc2)cc1 [CBK264033],99.6
26,Cc1ccc(S(=O)(=O)N(CC(=O)Nc2ccccc2C(=O)O)c2ccccc2)cc1 [CBK264034],94.6
27,COc1ccc(C(=O)NC(c2ccccc2Cl)c2cc(Cl)c3cccnc3c2O)cc1 (stereo not drawn) [CBK264036],88
28,COc1ccc(C(=O)NC(=S)Nc2ccc(O)c(-c3nc4cc(C)c(C)cc4o3)c2)cc1[N+](=O)[O-] [CBK264039],111
29,CC(=O)N/C(=C/c1ccccc1)C(=O)NCCC(=O)O [CBK264046],87.2
30,COc1cccc(C(=O)NC(c2ccc(OC)c(OC)c2)c2cc(Cl)c3cccnc3c2O)c1 (stereo not drawn) [CBK264048],95.4

# Same assay, conditions: human, hela cells, % viability, bulk resorufin, single well
row,Structure (SMILES),"viability at 28.5 h, 10 µM [%]"
1,Cc1cc(C)cc(N2C(=O)/C(=C/c3ccc(OC(C)C(=O)O)cc3)C(=O)NC2=S)c1 (stereo not drawn) [CBK264016],93.9
2,C=CCc1cc(/C=C2\C(=O)NC(=O)N(c3ccc4c(c3)OCO4)C2=O)cc(OC)c1OCC(=O)O [CBK264025],98.5
3,Cc1ccc(N2C(=O)/C(=C/c3ccc(OCC(=O)O)c(Cl)c3)C(=O)NC2=S)c(C)c1 [CBK264043],109
